Measurements taken from patent publication US10603357B2, “Therapeutic TREM-1 peptides” (Universite de Lorraine, priority 2004, dated 2020).

What was measured:
C57BL/6 mice = test: cecal ligation and puncture (CLP), survival of mice (Example 1); format: in vivo, mouse; settings: 200 μl of 600 μM i.p. 5 and 24 hours after CLP; 5 days after CLP; 15 per group
Protocol: CLP was induced in C57BL/6 mice (15 per group) as described in Materials and Methods. P1 peptide (empty dots) or P3 peptide (filled squares) (200 μl of a 600 μM solution per mouse) were injected intraperitoneally 5 and 24 hours after CLP induction. Viability of mice was monitored twice a day for 10 days. Statistical analysis was performed with the Logrank test.
In order to investigate whether TREM-1 peptide treatment could be delayed until after the administration of LPS, the Inventors injected the peptides at 4 hours after LPS injection. […] 80% of the mice injected with P1 4 hours after LPS survived endotoxaemia compared to 60% of mice treated 1 h before LPS and 10% of mice treated with vehicle alone (p<0.001 and p<0.01 respectively). Thus, P1 is effective even when injected after the outbreak of endotoxaemia. […] P1 administration conferred maximal protection (80%) when administered at 600 μM (p<0.01) and the level of protection dropped to 50% at 300 μM (p<0.05) and further down to 30% at 150 μM as compared to 20% of control mice, indicating a dose dependent effect of P1 (FIG. 4). The Inventors then investigated whether P1 protects against septic shock in the “CLP” model (Cecal Ligation and Puncture is a widely used experimental model of sepsis). […]

BALB/c mice [1] = test: LPS-induced endotoxaemia, survival of mice (Example 1); format: in vivo, mouse
Protocol: BALB/c mice (10 per group) were injected intraperitoneally with 200 μg LPS. The TREM-1 peptides P1, P2, P3, or P5 (200 μl of a 300 μM solution per mouse) were injected intraperitoneally 1 hour before LPS. Viability of mice was monitored twice a day for 7 days. Statistical analysis was performed by Logrank test. Data from control mice represent cumulative survival curves from two independent experiments performed under identical conditions.
BALB/c mice (10 per group) were injected intraperitoneally with 200 μg LPS. TREM-1 peptide P1, 200 μl of a 300 μM solution per mouse was injected intraperitoneally 1 hour before or 4 hours after LPS. Viability of mice was monitored twice a day for 7 days. Statistical analysis was performed with the Logrank test. Data from control mice represent cumulative survival curves from two independent experiments performed under identical conditions
BALB/c mice (10 per group) were injected intraperitoneally with 200 μg LPS. P1 peptide, 200 μl of a 150, 300 and 600 μM solution per mouse (dots) or P3, 200 μl of a 600 μM solution per mouse (filled squares) were injected intraperitoneally 4 hours after LPS. Viability of mice was monitored twice a day for 7 days. Statistical analysis was performed with the Logrank test
In the experiments of this example, the peptides were administered in a volume of 200 μl of the solution molarity indicated. To assess the ability of TREM1-peptides to protect mice from LPS-induced endotoxaemia, the Inventors administered peptides P1, P2, P3 and P5 (300 μM) 1 hour before a lethal dose of lipopolysaccharide (LPS) (FIG. 2). Lethality was monitored over time and compared with animals that had received control injections of vehicle alone. P5 injection confers maximal protection, with 90% of the animals still alive 7 days after LPS injection, as compared with 10% of control mice (p<0.001). 60% of the P1-treated mice and 50% of the P2 treated mice survived endotoxaemia as compared with 10% of control mice (p<0.01 and p<0.05 respectively).
In order to investigate whether TREM-1 peptide treatment could be delayed until after the administration of LPS, the Inventors injected the peptides at 4 hours after LPS injection. […] 80% of the mice injected with P1 4 hours after LPS survived endotoxaemia compared to 60% of mice treated 1 h before LPS and 10% of mice treated with vehicle alone (p<0.001 and p<0.01 respectively). Thus, P1 is effective even when injected after the outbreak of endotoxaemia. […] P1 administration conferred maximal protection (80%) when administered at 600 μM (p<0.01) and the level of protection dropped to 50% at 300 μM (p<0.05) and further down to 30% at 150 μM as compared to 20% of control mice, indicating a dose dependent effect of P1 (FIG. 4). The Inventors then investigated whether P1 protects against septic shock in the “CLP” model (Cecal Ligation and Puncture is a widely used experimental model of sepsis). Mice treated with two doses of P1 at 5 and 24 hours after CLP were protected from death as compared to control treated mice (p=0.0791) although the difference was not statistically significant. 40% of the mice injected with P1 at 5 days after CLP survived compared to 5% of mice treated with P3 peptide.

[2] = tested on: TREM-1/TREM-1 ligand interaction; test: competition of soluble mouse TREM-1/IgG1 binding to TREM-1 ligand positive peritoneal exudate cells (flow cytometry); settings: peptides 100 and 500 μM, pre-incubated 45 minutes on ice; 2 μg/ml mouseTREM-1/hIgG1
Protocol: Cytofluorimetric analysis of peritoneal exudate cells with 2 μg/ml of mouseTREM-1/hIgG1 in the presence of a 500 μM solution per mouse (thin line), 100 μM solution per mouse (dotted line) or absence (thick line) of the peptides is shown. The grey histogram represents immunostaining with human IgG1 as a control.
A possible mechanism of action could be the ability of TREM-1 derived peptide to interfere with TREM-1/TREM-1 ligand interaction. To address this question the Inventors performed competition experiments on TREM-1 ligand positive cells: PEC (Peritoneal Exudate Cells) from CLP treated mice.
Peritoneal exudate cells (PEC) from mice suffering from a caecal ligation and puncture (CLP)-induced peritonitis were subjected to flow cytometry analysis after incubation with a PE-conjugated anti-human IgG1 (Jackson Immunoresearch, Bar Harbor, USA). Competition with TREM-1 peptides was performed by pre-incubating cells with the indicated concentrations of peptides for 45 minutes on ice before adding mTREM-1-IgG1.

BALB/c mice [3] = test: CLP polymicrobial sepsis model in mice (Example 3); format: in vivo, mouse; settings: 24 hours after CLP; control peptide, dose not given in table (100 μg in source)
Protocol: Male Balb/C mice (20 to 23 g) were randomly grouped and treated with normal saline (n=14) or the control peptide (n=14, 100 μg) or with P5 (100 μg) in a single infection at HO (n=18), H+4 (n=18) or H+24 (n=18). The last group of mice (n=18) was treated with repeated injections of P5 (100 μg) at H+4, H+8 and H+24.
Mice (n=15 per group) were treated with a single injection of normal saline or 10 μg, 20 μg, 50 μg, 100 μg or 200 μg of P5 at HO after the CLP and monitored for survival.
Mice (5 per group) were killed under anaesthesia at 24 hours after CLP. Bacterial counts in peritoneal lavage fluid and blood were determined and results are expressed as CFU per mL of blood and CFU per mouse for the peritoneal lavage.
Male Balb/C mice (7 to 9 weeks, 20 to 23 g) were anaesthetized by i.p. administration of ketamine and xylazine in 0.2 mL sterile pyrogen-free saline. The caecum was exposed through a 1.0 cm abdominal midline incision and subjected to a ligation of the distal half followed by two punctures with a G21 needle. A small amount of stool was expelled from the punctures to ensure patency. The caecum was replaced into the peritoneal cavity and the abdominal incision closed in two layers. After surgery all mice were injected s.c. with 0.5 ml of physiologic saline solution for fluid resuscitation and s.c. every 12 h with 1.25 mg (i.e. 50 μg/g) of imipenem. The animals were randomly grouped and treated with normal saline (n=14), the control peptide (n=14, 100 μg) or P5 (100 μg) in a single injection at HO (n=18), H+4 (n=18) or H+24 (n=18). The last group of mice (n=18) was treated with repeated injections of P5 (100 μg) at H+4, H+8 and H+24. All treatments were diluted into 500 μl of normal saline and administered i.p. The Inventors next sought to determine the effect of various doses of P5. For this purpose, mice (n=15 per group) were treated with a single injection of normal saline or 10 μg, 20 μg, 50 μg 100 μg or 200 μg of P5 at HO after the CLP and monitored for survival. Five additional animals per group were killed under anaesthesia 24 hours after CLP for the determination of bacterial count and cytokines levels. Peritoneal lavage fluid was obtained using 2 mL RPMI 1640 (Life Technologies) and blood was collected by cardiac puncture. Concentrations of TNF-α and IL-1β in the serum were determined by ELISA (BD Biosciences). For the assessment of bacterial counts, blood and peritoneal lavage fluid were plated in serial log dilutions on tryptic soy supplemented with 5% sheep blood agar plates. After plating, tryptic soy agar plates were incubated at 37° C. aerobically for 24 hours, and anaerobically for 48 hours. Results are expressed as CFU per mL of blood and CFU per mouse for the peritoneal lavage.

human monocytes = test: in vitro stimulation of monocytes: TNF-α, IL-1β and sTREM-1 release; format: cell-based; settings: P5 or control peptide 10 to 100 ng/mL, rIL-10 500 U/mL; for TNF-α and IL-1β production (release of inflammatory cytokines) in monocyte supernatant: LPS 1 μg/mL or LPS + anti-TREM-1 mAb; for release of sTREM-1 from monocytes cultured with LPS: LPS 1 μg/mL
Protocol: For cell activation, primary monocytes were cultured in 24-well flat-bottom tissue culture plates in the presence of LPS (1 μg/mL). In some experiments this stimulus was provided in combination with P5 (10 to 100 ng/mL), control peptide (10 to 100 ng/mL) or rIL-10 (500 U/mL). To activate monocytes through TREM-1, an agonist anti-TREM-1 mAb (10 μg/mL) was added as indicated. Cell-free supernatants were analysed for production of TNF-α, IL-1β. and sTREM-1 by ELISA or immunodot. All experiments were performed in triplicate and data are expressed as means (SEM). • a: Media • b: P5 10 ng/mL • c: Anti-TREM-1 • d: LPS • e: LPS+Anti-TREM-1 • f: LPS+P5 10 ng/mL • g: LPS+P5 50 ng/mL • h: LPS+P5 100 ng/mL • i: LPS+IL10
Ten mL of peripheral blood samples were collected on EDTA-K from 5 healthy volunteer donors originating from laboratory staff. After dilution in RPMI (Life Technologies, Grand Island, N.Y.) v/v, blood was centrifuged for 30 min at room temperature over a Ficoll gradient (Amersham Pharmacia, Uppsala, Sweden) to isolate PBMC. The cells recovered above the gradient were washed and counted. In order to deplete the suspensions of lymphocytes, cells were then plated in 24-well flat-bottom tissue culture plates (Corning, Corning, N.Y.) at a concentration of 5×10^6/mL and allowed to adhere during 2 hours at 37° C. The resulting lymphocyte suspension was discarded and the adhering monocytic cells were maintained in a 5% CO2 incubator at 37° C. in complete medium (RPMI 1640, 0.1 mM sodium pyruvate, […], 50 μg/mL Streptomycin; Life Technologies) supplemented with 10% FCS (Invitrogen, Cergy, France).
For activation, monocytes were cultured in the presence of E. coli LPS (0111:B4, 1 μg/mL, Sigma-Aldrich, La Verpillière, France). Cell viability was assessed by trypan blue exclusion and by measuring lactate dehydrogenase release. In some experiments, this stimulus was given in combination with TNF-α (5 to 100 ng/mL, R&D Systems, Lille, France), IL-1β (5 to 100 ng/mL, R&D Systems), rIFN-γ (up to 100 U/mL, R&D Systems), rIL-10 (500 U/ml, R&D Systems) or up to 100 ng/mL of P5 or control peptide.
In order to activate monocytes through TREM-1, an anti-TREM-1 agonist monoclonal antibody (R&D Systems) was added as follows: flat-bottom plates were precoated with 10 μg/mL anti-TREM-1 per well. After thorough washing in phosphate buffered saline (PBS), the monocyte suspensions were added at a similar concentration as above. Some experiments were performed in the presence of protease inhibitors (PMSF and Protease Cocktail Inhibitor; Invitrogen). Cell-free supernatants were assayed for the production of TNF-α and IL-1β by ELISA according to the recommendations of the manufacturer (BD Biosciences, San Diego, USA). To address the effect of P5 on NF-κB activity in monocytes, an ELISA-based assay was performed (BD Mercury™ Transfactor Kit, BD Biosciences). Monocytes were cultured for 24 hours in the presence of E. coli LPS (O111:B4, 1 μg/mL), and/or an agonist anti-TREM-1 monoclonal antibody (10 μg/mL), and/or P5 (100 ng/mL). Whole-cell extracts were then prepared and levels of NF-κB p50 and p65 were determined according to the recommendations of the manufacturer. All experiments were performed in triplicate and data are expressed as means (SEM). Identification and Quantitation of sTREM-1 Release
Primary monocytes suspensions were cultured as described above. The cells were treated with E. coli LPS (0111:B4, 1 μg/mL) for 24 hours at 37° C. Cell-conditioned medium was submitted to Western-blotting using an anti-TREM-1 monoclonal antibody (R&D Systems) in order to confirm the presence of 27 kDa material recognized by anti-TREM-1. Soluble TREM-1 levels were measured by assessing the optical intensity of bands on immunodots by means of a reflectance scanner and the Quantity One Quantitation Software (Bio-Rad, Cergy, France) as reported elsewhere (18). […]

Molecule	inhibition of TREM-1 interaction with its ligand (mTREM-1/IgG1 binding to PEC) [2]	TNF-α and IL-1β production (release of inflammatory cytokines) in monocyte supernatant (human monocytes)	release of sTREM-1 from monocytes cultured with LPS (human monocytes)	also measured
TTTRSLPKPTAVVSSPG [P3]	ineffective	–	–	mice surviving after CLP (C57BL/6 mice): 5%; time within which all treated mice died after LPS injection (BALB/c mice [1]; 200 μl of 300 μM peptide i.p. 1 hour before LPS): ≤ 4 days
TDSRCVIGLYHPPLQVY [P5sc, reference compound]	–	no action	no action	Serum IL-1β (BALB/c mice [3]): 841 ± 204 pg/mL; Serum TNF-α (BALB/c mice [3]): 105 ± 12 pg/mL; Serum sTREM-1 (BALB/c mice [3]): 52 ± 3 ng/mL
VIYHPPNDPVVLFHPVRLVVTKG (listed as Mus musculus) [P2]	inhibit TREM-1 interaction with its ligand in a dose dependent manner	–	–	animals alive 7 days after LPS injection (BALB/c mice [1]; 200 μl of 300 μM peptide i.p. 1 hour before 200 μg LPS i.p., 10 mice per group (FIG. 2, 3)): 50%
IL-10: rIL-10 (500 U/ml, R&D Systems) (protein, UniProt P22301 19-178, looked up) Interleukin-10: SPGQGTQSENSCTHFPGNLPNMLRDLRDAFSRVKTFFQMKDQLDNLLLKESLLEDFKGYLGCQALSEMIQFYLEEVMPQAENQDPDIKAHVNSLGENLKTLRLRLRRCHRFLPCENKSKAVEQVKNAFNKLQEKGIYKAMSEFDIFINYIEAYMTMKIRN	–	totally inhibited	totally inhibited	–
